≈ marks a conversion by molar mass, not a printed value.
How the values were obtained:
Assay in all cases: MIC by agar-dilution technique, Jewell and Pearmain agar
Assay type in all cases: cell-based
E. coli = details: Escherichia coli, Code No. A8, inoculum ~10^5 CFU
Text: (§1) The results set out in the following Table are illustrative of the biological activity of the compounds of the present invention. […] The following results are those obtained on a standard in vitro test system using Jewell and Pearmain agar medium. The antibacterial activity is described in terms of the minimum inhibitory concentration (MIC) determined by agar-dilution technique with an inoculum size of ~10^5 CFU.

Ent. cloacae = details: Enterobacter cloacae, Code No. A13, inoculum ~10^5 CFU
Text: as §1

K. aerogenes = details: Klebsiella aerogenes, Code No. A10, inoculum ~10^5 CFU
Text: as §1

Proteus mirabilis = details: Code No. A18, inoculum ~10^5 CFU
Text: as §1

Ps. aeruginosa = details: Pseudomonas aeruginosa, Code No. A21, inoculum ~10^5 CFU
Text: as §1

Salmonella dublin = details: Salmonella enterica, Code No. A20, inoculum ~10^5 CFU
Text: as §1

Serratia marescens = details: Code No. A16, inoculum ~10^5 CFU
Text: as §1

Staph. aureus = details: Staphylococcus aureus, Code No. A6, inoculum ~10^5 CFU
Text: as §1

Strep. pyogenes = details: Streptococcus pyogenes, Code No. A1, inoculum ~10^5 CFU
Text: as §1

SMILES	MIC (E. coli)	MIC (Ent. cloacae)	MIC (K. aerogenes)	MIC (Proteus mirabilis)	MIC (Ps. aeruginosa)	MIC (Salmonella dublin)	MIC (Serratia marescens)	MIC (Staph. aureus)	MIC (Strep. pyogenes)
O=C(O)C1=C(CSc2c[nH]nn2)CS[C@@H]2[C@H](Nc3nc(CCCNC(=S)NCC(F)(F)F)c[nH]3)C(=O)N12 [Example 80, 7-[4-(3-[3-(2,2,2-trifluoroethyl)thioureido]propyl)imidazol-2-yl]amino-3-(1H-1,2,3-triazol-4-yl)thiomethylceph-3-em-4-carboxylic acid]	1 mg/L (≈ 1.73 µM)	4 mg/L (≈ 6.92 µM)	2 mg/L (≈ 3.46 µM)	4 mg/L (≈ 6.92 µM)	> 128 mg/L	0.5 mg/L (≈ 0.866 µM)	64 mg/L (≈ 111 µM)	32 mg/L (≈ 55.4 µM)	32 mg/L (≈ 55.4 µM)
Cn1nnnc1SCC1=C(C(=O)O)N2C(=O)[C@@H](Nc3nc(CCC#N)c[nH]3)[C@H]2SC1 [Example 16, 7-[4-(2-cyanoethyl)imidazol-2-yl]amino-3-(1-methyl-1H-tetrazol-5-yl)thiomethylceph-3-em-4-carboxylic acid]	0.016 mg/L (≈ 0.0358 µM)	4 mg/L (≈ 8.94 µM)	0.06 mg/L (≈ 0.134 µM)	1 mg/L (≈ 2.23 µM)	> 128 mg/L	0.008 mg/L (≈ 0.0179 µM)	2 mg/L (≈ 4.47 µM)	16 mg/L (≈ 35.8 µM)	8 mg/L (≈ 17.9 µM)
C=CCc1c[nH]c(N[C@@H]2C(=O)N3C(C(=O)O)=C(CSc4nnnn4C)CS[C@H]23)n1 [Example 6.1, 7-(4-allylimidazol-2-yl)amino-3-(1-methyl-1H-tetrazol-5-yl)thiomethylceph-3-em-4-carboxylic acid]	0.016 mg/L (≈ 0.0368 µM)	16 mg/L (≈ 36.8 µM)	0.03 mg/L (≈ 0.069 µM)	2 mg/L (≈ 4.6 µM)	> 256 mg/L	0.016 mg/L (≈ 0.0368 µM)	0.25 mg/L (≈ 0.575 µM)	32 mg/L (≈ 73.6 µM)	8 mg/L (≈ 18.4 µM)
CC(=O)OCC1=C(C(=O)O)N2C(=O)[C@@H](Nc3nc(Cc4ccccc4)c[nH]3)[C@H]2SC1 [Example 1, 7-(4-benzylimidazol-2-yl)amino-3-acetoxymethylceph-3-em-4-carboxylic acid]	0.25 mg/L (≈ 0.583 µM)	128 mg/L (≈ 299 µM)	1 mg/L (≈ 2.33 µM)	32 mg/L (≈ 74.7 µM)	> 256 mg/L	0.5 mg/L (≈ 1.17 µM)	64 mg/L (≈ 149 µM)	32 mg/L (≈ 74.7 µM)	–
CNC(=O)OCCCc1c[nH]c(N[C@@H]2C(=O)N3C(C(=O)O)=C(COC(C)=O)CS[C@H]23)n1 [Example 9.2, 7-[4-(3-methylcarbamoyloxypropyl)imidazol-2-yl]amino-3-acetoxymethylceph-3-em-4-carboxylic acid]	0.03 mg/L (≈ 0.0662 µM)	64 mg/L (≈ 141 µM)	0.06 mg/L (≈ 0.132 µM)	8 mg/L (≈ 17.6 µM)	> 256 mg/L	0.06 mg/L (≈ 0.132 µM)	8 mg/L (≈ 17.6 µM)	64 mg/L (≈ 141 µM)	32 mg/L (≈ 70.6 µM)
O=C(O)C1=C(CSc2c[nH]nn2)CS[C@@H]2[C@H](Nc3nc(CCNC(=O)C(F)(F)F)c[nH]3)C(=O)N12 [Example 10, 7-[4-(2-trifluoroacetylaminoethyl)imidazol-2-yl]amino-3-(1H-1,2,3-triazol-4-yl)thiomethylceph-3-em-4-carboxylic acid]	0.03 mg/L (≈ 0.0579 µM)	16 mg/L (≈ 30.9 µM)	0.06 mg/L (≈ 0.116 µM)	2 mg/L (≈ 3.86 µM)	> 256 mg/L	0.016 mg/L (≈ 0.0309 µM)	16 mg/L (≈ 30.9 µM)	64 mg/L (≈ 123 µM)	64 mg/L (≈ 123 µM)
Cc1nnc(SCC2=C(C(=O)O)N3C(=O)[C@@H](Nc4nc(CCNC(=O)C(F)(F)F)c[nH]4)[C@H]3SC2)s1 [Example 4.2, 7-[4-(2-trifluoroacetylaminoethyl)imidazol-2-yl]amino-3-(2-methyl-1,3,4-thiadiazol-5-yl)thiomethylceph-3-em-4-carboxylic acid]	0.12 mg/L (≈ 0.218 µM)	16 mg/L (≈ 29.1 µM)	0.12 mg/L (≈ 0.218 µM)	16 mg/L (≈ 29.1 µM)	> 256 mg/L	0.25 mg/L (≈ 0.455 µM)	4 mg/L (≈ 7.28 µM)	32 mg/L (≈ 58.2 µM)	16 mg/L (≈ 29.1 µM)

— US4492692A, “Cephalosporin derivatives” (Imperial Chemical Industries PLC, priority 1980, dated 1985)
